# Test results from US9670142B2, “1,3-diaminocyclopentane carboxamide derivatives” (Merck Patent GmbH, priority 2013, dated 2017).
# Target: human fatty acid synthase FASN (Homo sapiens (Human), UniProt P49327)
# Assay: Biochemical activity testing of human fatty acid synthase FASN (NADPH fluorescence intensity enzyme assay)
# Conditions: human recombinant full-length fatty acid synthase
# Excerpt: Biochemical activity testing of human fatty acid synthase FASN
# Fatty acid synthase FASN is a multifunctional enzyme with seven catalytic activities thereby synthesising long chain fatty acids especially palmitoyl-CoA in the presence of co-factor NADPH starting from the substrates acetyl-CoA and malonyl-CoA. The reductive synthesis is realized by the oxidation of NADPH to NADP. Since NADPH has a high fluorescence intensity quantum yield compared to NADP with excitation at 340 nm and emission at 460 nm, the reaction can be monitored via the decrease in fluorescence intensity. The biochemical FASN activity testing was performed as 384 well two-time-point kinetic fluorescence intensity assay format in Greiner low volume medium binding 384-well black microtiter plates in a total assay volume of 8 μl and was used for high throughput screen. In each well 3 μl 40 nM human recombinant full-length fatty acid synthase (produced in-house in SF9 cells) were dispensed in the following assay buffer: 50 mM potassium phosphate buffer pH 7.0, 0.005% (w/v) BSA, 2 mM Glutathione, 0.02% Tween-20. Then 2 μl of 200 μM NADPH in assay buffer were added, followed by the addition of the test compounds in 10 dilution concentrations starting with 30 μM (final concentration) to get a final DMSO content of 1% (v/v). The mixture was incubated for at least 15 min at room temperature. After the pre-incubation the enzymatic reaction was started by the addition of 2 μl substrate solution (80 μM acetyl-CoA, 240 μM malonyl-CoA). A first fluorescence intensity measurement (time point one) was performed with an Envision multimode reader (Perkin Elmer LAS Germany GmbH) at excitation wavelength 340 nm (lamp mode) and emission wavelength 460 nm. The reaction was incubated for 30 minutes at room temperature. After this the fluorescence intensity was measured again in the Envision using the same parameters as described above (second time point measurement). The data were analysed by subtracting the first time point measurement value from the second time point measurement value (after the enzymatic reaction). The differences of the emission signals were determined. These reflect directly the conversion rate of NADPH. The full value used was the inhibitor-free reaction. A pharmacological zero value was used like GSK837149A (Sigma-Aldrich) in a final concentration of 5-10 μM. The inhibitory values (IC50) were determined using either the program Symyx Assay Explorer® or Condosseo® from GeneData.
# human fatty acid synthase FASN, sequence (P49327 whole entry): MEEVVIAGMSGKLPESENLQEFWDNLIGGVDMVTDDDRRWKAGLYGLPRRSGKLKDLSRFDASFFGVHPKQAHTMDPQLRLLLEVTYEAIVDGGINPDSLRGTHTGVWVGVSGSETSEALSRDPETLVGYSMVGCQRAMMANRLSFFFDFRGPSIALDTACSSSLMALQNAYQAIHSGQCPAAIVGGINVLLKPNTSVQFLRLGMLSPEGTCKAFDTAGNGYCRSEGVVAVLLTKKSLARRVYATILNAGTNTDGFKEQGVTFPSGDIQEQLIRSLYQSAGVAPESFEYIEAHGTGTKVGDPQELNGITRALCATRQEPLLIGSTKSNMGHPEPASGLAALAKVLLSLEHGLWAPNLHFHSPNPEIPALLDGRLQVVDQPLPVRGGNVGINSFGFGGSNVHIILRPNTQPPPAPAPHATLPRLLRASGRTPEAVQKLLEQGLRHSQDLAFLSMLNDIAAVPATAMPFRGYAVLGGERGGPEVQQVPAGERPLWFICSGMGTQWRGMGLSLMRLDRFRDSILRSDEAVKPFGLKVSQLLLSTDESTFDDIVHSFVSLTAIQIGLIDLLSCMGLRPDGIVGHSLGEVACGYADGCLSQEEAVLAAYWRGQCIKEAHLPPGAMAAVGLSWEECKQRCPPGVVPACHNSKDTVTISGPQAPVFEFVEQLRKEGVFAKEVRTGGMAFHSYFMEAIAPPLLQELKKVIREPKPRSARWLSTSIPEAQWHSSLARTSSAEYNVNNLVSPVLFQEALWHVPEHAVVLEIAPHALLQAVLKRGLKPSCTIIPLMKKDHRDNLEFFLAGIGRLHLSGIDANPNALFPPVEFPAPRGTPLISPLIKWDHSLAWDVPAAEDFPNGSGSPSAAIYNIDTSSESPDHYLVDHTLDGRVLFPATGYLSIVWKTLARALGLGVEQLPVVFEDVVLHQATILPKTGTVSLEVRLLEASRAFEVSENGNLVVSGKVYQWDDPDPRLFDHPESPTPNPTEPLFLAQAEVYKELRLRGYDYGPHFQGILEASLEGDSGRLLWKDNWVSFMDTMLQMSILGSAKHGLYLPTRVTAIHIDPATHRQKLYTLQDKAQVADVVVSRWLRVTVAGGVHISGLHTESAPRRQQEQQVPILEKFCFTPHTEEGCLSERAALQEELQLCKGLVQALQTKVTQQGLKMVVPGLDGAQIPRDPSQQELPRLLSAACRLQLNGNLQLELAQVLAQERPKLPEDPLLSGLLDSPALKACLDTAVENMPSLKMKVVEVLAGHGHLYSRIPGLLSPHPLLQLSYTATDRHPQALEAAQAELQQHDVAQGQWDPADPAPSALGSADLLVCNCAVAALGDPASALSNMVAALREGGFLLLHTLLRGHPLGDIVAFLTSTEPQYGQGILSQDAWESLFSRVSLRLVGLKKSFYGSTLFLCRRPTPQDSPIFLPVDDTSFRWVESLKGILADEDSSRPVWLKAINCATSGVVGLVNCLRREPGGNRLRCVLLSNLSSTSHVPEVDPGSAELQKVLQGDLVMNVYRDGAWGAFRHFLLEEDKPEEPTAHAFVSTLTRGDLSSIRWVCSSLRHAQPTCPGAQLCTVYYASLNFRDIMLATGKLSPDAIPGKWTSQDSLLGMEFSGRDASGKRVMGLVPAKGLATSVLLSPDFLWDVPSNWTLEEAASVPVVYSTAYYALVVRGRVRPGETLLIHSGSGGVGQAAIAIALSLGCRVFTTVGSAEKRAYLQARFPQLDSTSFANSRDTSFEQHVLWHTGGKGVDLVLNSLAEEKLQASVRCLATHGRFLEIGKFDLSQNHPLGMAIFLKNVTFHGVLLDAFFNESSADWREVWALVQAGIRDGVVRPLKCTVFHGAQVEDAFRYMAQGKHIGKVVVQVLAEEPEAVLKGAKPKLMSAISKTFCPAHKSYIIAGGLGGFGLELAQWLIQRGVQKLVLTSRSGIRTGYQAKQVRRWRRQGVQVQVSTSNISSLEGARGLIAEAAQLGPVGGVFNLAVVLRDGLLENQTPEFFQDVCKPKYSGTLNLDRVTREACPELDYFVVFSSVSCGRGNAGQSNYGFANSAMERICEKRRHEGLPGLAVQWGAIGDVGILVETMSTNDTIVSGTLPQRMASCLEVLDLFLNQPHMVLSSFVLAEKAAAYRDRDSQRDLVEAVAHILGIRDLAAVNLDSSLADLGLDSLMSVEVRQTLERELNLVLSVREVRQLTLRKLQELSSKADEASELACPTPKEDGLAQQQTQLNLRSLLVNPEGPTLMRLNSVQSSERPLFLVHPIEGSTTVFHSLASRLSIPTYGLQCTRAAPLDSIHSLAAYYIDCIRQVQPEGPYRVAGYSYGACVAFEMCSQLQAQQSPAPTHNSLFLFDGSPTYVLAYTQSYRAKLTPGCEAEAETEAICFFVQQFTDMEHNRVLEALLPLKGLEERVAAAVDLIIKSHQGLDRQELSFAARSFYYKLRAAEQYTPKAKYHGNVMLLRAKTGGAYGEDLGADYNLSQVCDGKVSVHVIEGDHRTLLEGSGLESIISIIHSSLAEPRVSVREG
row,IC50 [nM],SMILES
1,< 300,"CC[C@H](C)CC(=O)N[C@H]1CC[C@@H](N(C)C(=O)c2ccc(-c3nc4ccccc4o3)cc2)C1 [Compound A30, 4-benzoxazol-2-yl-N-methyl-N-[(1R,3S)-3-((S)-3-methyl-pentanoylamino)-cyclopentyl]-benzamide]"
2,< 300,"CC[C@@H](C)CC(=O)N[C@H]1CC[C@@H](N(C)C(=O)c2ccc(-c3nc4ccccc4o3)cc2)C1 [Compound A31, 4-benzoxazol-2-yl-N-methyl-N-[(1R,3S)-3-((R)-3-methyl-pentanoylamino)-cyclopentyl]-benzamide]"
3,300 to 3000,"CO[C@H](C)C(=O)N[C@H]1CC[C@@H](N(C)C(=O)c2ccc(-c3nc4ccccc4o3)cc2)C1 [Compound A32, 4-benzoxazol-2-yl-N-[(1R,3S)-3-((R)-2-methoxy-propionylamino)-cyclopentyl]-N-methyl-benzamide]"
4,< 300,"CO[C@@H](C)C(=O)N[C@H]1CC[C@@H](N(C)C(=O)c2ccc(-c3nc4ccccc4o3)cc2)C1 [Compound A33, 4-benzoxazol-2-yl-N-[(1R,3S)-3-((S)-2-methoxy-propionylamino)-cyclopentyl]-N-methyl-benzamide]"
5,< 300,"COCC(=O)N[C@H]1CC[C@@H](N(C)C(=O)c2ccc(-c3nc4ccccc4o3)cc2)C1 [Compound A34, 4-benzoxazol-2-yl-N-[(1R,3S)-3-(2-methoxy-acetylamino)-cyclopentyl]-N-methyl-benzamide]"
6,< 300,"CC(C)CC(=O)N[C@H]1CC[C@@H](N(C)C(=O)c2ccc(-c3nc4ccccc4o3)cc2)C1 [Compound A35, 4-benzoxazol-2-yl-N-methyl-N-[(1R,3S)-3-(3-methyl-butyrylamino)-cyclopentyl]-benzamide]"
7,300 to 3000,"CN(C)CC(=O)N[C@H]1CC[C@@H](N(C)C(=O)c2ccc(-c3nc4ccccc4o3)cc2)C1 [Compound A36, 4-benzoxazol-2-yl-N-[(1R,3S)-3-(2-dimethylamino-acetylamino)-cyclopentyl]-N-methyl-benzamide]"
8,< 300,"C[C@H](O)C(=O)N[C@H]1CC[C@@H](N(C)C(=O)c2ccc(-c3nc4ccccc4o3)cc2)C1 [Compound A37, 4-benzoxazol-2-yl-N-[(1R,3S)-3-((S)-2-hydroxy-propionylamino)-cyclopentyl]-N-methyl-benzamide]"
9,300 to 3000,"CC(=O)NCCC(=O)N[C@H]1CC[C@@H](N(C)C(=O)c2ccc(-c3nc4ccccc4o3)cc2)C1 [Compound A38, N-[(1R,3S)-3-(3-acetylamino-propionylamino)-cyclopentyl]-4-benzoxazol-2-yl-N-methyl-benzamide]"
10,300 to 3000,"COC(=O)[C@H](CC(=O)N[C@H]1CC[C@@H](N(C)C(=O)c2ccc(-c3nc4ccccc4o3)cc2)C1)NC(C)=O [Compound A39, (S)-2-acetylamino-N-{(1S,3R)-3-[(4-benzoxazol-2-yl-benzoyl)-methyl-amino]-cyclopentyl}-succinamic acid methyl ester]"
11,< 300,"CN(C(=O)c1ccc(-c2nc3ccccc3o2)cc1)[C@@H]1CC[C@H](NC(=O)[C@H]2CCCO2)C1 [Compound A40, (R)-tetrahydro-furan-2-carboxylic acid {(1S,3R)-3-[(4-benzoxazol-2-yl-benzoyl)-methyl-amino]-cyclopentyl}-amide]"
12,< 300,"CN(C(=O)c1ccc(-c2nc3ccccc3o2)cc1)[C@@H]1CC[C@H](NC(=O)[C@@H]2CCCO2)C1 [Compound A41, (S)-tetrahydro-furan-2-carboxylic acid {(1S,3R)-3-[(4-benzoxazol-2-yl-benzoyl)-methyl-amino]-cyclopentyl}-amide]"
13,3000 to 50000,"CC(=O)N[C@@H](C(=O)N[C@H]1CC[C@@H](N(C)C(=O)c2ccc(-c3nc4ccccc4o3)cc2)C1)C(C)C [Compound A42, N-[(1R,3S)-3-((R)-2-acetylamino-3-methyl-butyrylamino)-cyclopentyl]-4-benzoxazol-2-yl-N-methyl-benzamide]"
14,300 to 3000,"CC(=O)N[C@H](C(=O)N[C@H]1CC[C@@H](N(C)C(=O)c2ccc(-c3nc4ccccc4o3)cc2)C1)C(C)C [Compound A43, N-[(1R,3S)-3-((S)-2-acetylamino-3-methyl-butyrylamino)-cyclopentyl]-4-benzoxazol-2-yl-N-methyl-benzamide]"
15,< 300,CN(C(=O)c1ccc(-c2nc3ccccc3o2)cc1)[C@@H]1CC[C@H](NC(=O)CC2CCCC2)C1 [Compound A44]
16,3000 to 50000,"CN(C(=O)c1ccc(-c2nc3ccccc3o2)cc1)[C@@H]1CC[C@H](NC(=O)C[C@@H]2CCC(=O)N2)C1 [Compound A45, 4-benzoxazol-2-yl-N-methyl-N-{(1R,3S)-3-[2-((S)-5-oxo-pyrrolidin-2-yl)-acetylamino]-cyclopentyl}-benzamide]"
17,< 300,"CCC(=O)N[C@H]1CC[C@@H](N(C)C(=O)c2ccc(-c3ccc4cn[nH]c4c3)cc2)C1 [Compound A46, 4-(1H-indazol-6-yl)-N-methyl-N-((1R,3S)-3-propionylamino-cyclopentyl)-benzamide]"
18,3000 to 50000,"CC(=O)N[C@@H](C)C(=O)N[C@H]1CC[C@@H](N(C)C(=O)c2ccc(-c3nc4ccccc4o3)cc2)C1 [Compound A47, N-[(1R,3S)-3-((S)-2-acetylamino-propionylamino)-cyclopentyl]-4-benzoxazol-2-yl-N-methyl-benzamide]"
19,< 300,"CCC(=O)N[C@H]1CC[C@@H](N(C)C(=O)c2ccc(-c3nc4cccc(F)c4o3)cc2)C1 [Compound A49, 4-(7-fluoro-benzoxazol-2-yl)-N-methyl-N-((1R,3S)-3-propionylamino-cyclopentyl)-benzamide]"
20,300 to 3000,"CN(C(=O)c1ccc(-c2nc3cccc(F)c3o2)cc1)[C@@H]1CC[C@H](NC(=O)C2CC2)C1 [Compound A50, N-[(1R,3S)-3-(cyclopropanecarbonyl-amino)-cyclopentyl]-4-(7-fluoro-benzoxazol-2-yl)-N-methyl-benzamide]"
21,< 300,"CCC(=O)N[C@H]1CC[C@@H](N(C)C(=O)c2ccc(-c3ccc(C(=O)O)cc3)cc2)C1 [Compound A51, 4′-[methyl-((1R,3S)-3-propionylamino-cyclopentyl)-carbamoyl]-biphenyl-4-carboxylic acid]"
22,< 300,"CCC(=O)N[C@H]1CC[C@@H](N(C)C(=O)c2ccc(-c3ccc(C(=O)O)c(C)c3)cc2)C1 [Compound A52, 3-methyl-4′-[methyl-((1R,3S)-3-propionylamino-cyclopentyl)-carbamoyl]-biphenyl-4-carboxylic acid]"
23,< 300,"CCC(=O)N[C@H]1CC[C@@H](N(C)C(=O)c2ccc(-c3ccc(F)cc3)cc2)C1 [Compound A53, 4′-fluoro-biphenyl-4-carboxylic acid methyl-((1R,3S)-3-propionylamino-cyclopentyl)-amide]"
24,300 to 3000,"CCC(=O)N[C@H]1CC[C@@H](N(C)C(=O)c2ccc(-c3ccc(C4CCC(C)CC4)cc3F)cc2)C1 (stereo partly drawn) [Compound A54, 2′-fluoro-4′-(4-methyl-cyclohexyl)-biphenyl-4-carboxylic acid methyl-((1R,3S)-3-propionylamino-cyclopentyl)-amide]"
25,3000 to 50000,"CCC(=O)N[C@H]1CC[C@@H](N(C)C(=O)c2ccc(-c3ccc(C(C)(C)C)cc3)cc2)C1 [Compound A55, tert-butyl-biphenyl-4-carboxylic acid methyl-((1R,3S)-3-propionylamino-cyclopentyl)-amide]"
26,< 300,"CCC(=O)N[C@H]1CC[C@@H](N(C)C(=O)c2ccc(-c3ccc(OC)c(OC)c3)cc2)C1 [Compound A56, 3′,4′-dimethoxy-biphenyl-4-carboxylic acid methyl-((1R,3S)-3-propionylamino-cyclopentyl)-amide]"
27,< 300,"CCC(=O)N[C@H]1CC[C@@H](N(C)C(=O)c2ccc(-c3ccc(C(N)=O)cc3)cc2)C1 [Compound A57, biphenyl-4,4′-dicarboxylic acid 4′-amide 4-[methyl-((1R,3S)-3-propionylamino-cyclopentyl)-amide]]"
28,< 300,"CCC(=O)N[C@H]1CC[C@@H](N(C)C(=O)c2ccc(-c3ccc4c(c3)OCO4)cc2)C1 [Compound A58, 4-benzo[1,3]dioxol-5-yl-N-methyl-N-((1R,3S)-3-propionylamino-cyclopentyl)-benzamide]"
29,< 300,"CCC(=O)N[C@H]1CC[C@@H](N(C)C(=O)c2ccc(-c3ccc4ncsc4c3)cc2)C1 [Compound A59, 4-benzothiazol-6-yl-N-methyl-N-((1R,3S)-3-propionylamino-cyclopentyl)-benzamide]"
30,< 300,"CCC(=O)N[C@H]1CC[C@@H](N(C)C(=O)c2ccc(-c3ccc4c(c3)NC(=O)C4)cc2)C1 [Compound A60, N-methyl-4-(2-oxo-2,3-dihydro-1H-indol-6-yl)-N-((1R,3S)-3-propionylamino-cyclopentyl)-benzamide]"
